In ChEMBL document CHEMBL1138966 (Bioorg Med Chem Lett, 2006):
In brackets after ≈: the same amount, converted by molar mass.

Assays:
[1] = molecular target: Human immunodeficiency virus type 1 integrase (Human immunodeficiency virus 1, UniProt Q7ZJM1); experiment: Inhibition of strand transfer activity of HIV integrase
MT4 = experiment: Cytotoxicity against MT4 cells; assay type: functional; conditions: Homo sapiens
[2] = tested on: Human immunodeficiency virus 1; experiment: Antiviral activity against HIV1 3B in MT4 cells; assay type: functional, organism-based; conditions: Human immunodeficiency virus 1, 3B
[3] = tested on: Human immunodeficiency virus 1; experiment: Antiviral activity against HIV1 3B in MT2 cells; assay type: functional, organism-based; conditions: Human immunodeficiency virus 1, 3B
physchem = conditions: buffer, pH 7.3
[4] = tested on: Human immunodeficiency virus 1; experiment: Antiviral activity against HIV1 3B assessed as protein binding effect in MT2 cells; assay type: functional, organism-based; conditions: Human immunodeficiency virus 1, 3B
[5] = buffer, pH 7.3

Sequence of Human immunodeficiency virus type 1 integrase (Q7ZJM1 whole entry): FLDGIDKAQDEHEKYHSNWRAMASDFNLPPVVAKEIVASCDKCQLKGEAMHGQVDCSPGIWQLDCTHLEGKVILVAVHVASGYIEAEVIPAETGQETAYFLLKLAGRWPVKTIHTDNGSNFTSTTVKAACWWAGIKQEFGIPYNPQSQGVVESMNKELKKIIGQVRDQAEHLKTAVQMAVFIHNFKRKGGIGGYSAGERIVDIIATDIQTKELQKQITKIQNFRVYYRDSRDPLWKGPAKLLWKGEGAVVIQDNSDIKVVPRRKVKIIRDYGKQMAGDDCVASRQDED

COc1c2c(c(O)c3ncccc13)C(=O)N(Cc1ccc(F)cc1)C2
IC50 [1]: 50 nM | CC50 (MT4): 5100 nM | EC50 [2]: 89 nM

O=C(NCc1ccc(F)cc1)c1ccc2cccnc2c1O
IC50 [1]: 2000 nM | EC50 [2]: > 10000 nM

O=C1c2c(c(C(=O)N3CCOCC3)c3cccnc3c2O)CN1Cc1ccc(F)cc1
EC50 [3]: 3.4 nM | IC50 [1]: 36 nM | solubility (physchem): 97 µM (≈ 40.9 µg/mL) | EC50 [4]: 54 nM | CC50 (MT4): 4000 nM

CN(C)C(=O)Oc1c2c(c(O)c3ncccc13)C(=O)N(Cc1ccc(F)cc1)C2
IC50 [1]: 760 nM | CC50 (MT4): 1500 nM | EC50 [2]: 3 nM

O=C(NCc1ccccn1)c1c2c(c(O)c3ncccc13)C(=O)N(Cc1ccc(F)cc1)C2
EC50 [3]: 9.8 nM | IC50 [1]: 190 nM | solubility (physchem): 36 µM (≈ 15.9 µg/mL) | EC50 [4]: 94 nM | CC50 (MT4): 1600 nM

CCOC(=O)c1cccc(-c2c3c(c(O)c4ncccc24)C(=O)N(Cc2ccc(F)cc2)C3)c1
IC50 [1]: 2100 nM | CC50 (MT4): 1000 nM | EC50 [2]: 340 nM

O=C1c2c(cc3cccnc3c2O)CN1Cc1ccc(F)cc1
IC50 [1]: 70 nM | IC50 [2]: 100 nM

CN(C)C(=O)Oc1c2c(c(O)c3ncccc13)C(=O)N(Cc1ccc(F)cc1)C2=O
IC50 [1]: 2400 nM | solubility (physchem): 2.5 µM (≈ 1.02 µg/mL) | CC50 (MT4): 22000 nM | IC50 [2]: 1180 nM

COc1c2c(c(O)c3ncccc13)C(=O)N(Cc1ccc(F)cc1)C2=O
IC50 [1]: 80 nM | solubility (physchem): < 1.4 µM | CC50 (MT4): 19000 nM | EC50 [2]: 7500 nM

CCOc1ccc(-c2c3c(c(O)c4ncccc24)C(=O)N(Cc2ccc(F)cc2)C3)cc1
IC50 [1]: 1200 nM | CC50 (MT4): 1000 nM | EC50 [2]: 780 nM

CCOC(=O)c1ccccc1-c1c2c(c(O)c3ncccc13)C(=O)N(Cc1ccc(F)cc1)C2
IC50 [1]: 350 nM | CC50 (MT4): 400 nM | EC50 [2]: 70 nM

O=C1c2c(c(-c3c(F)cccc3F)c3cccnc3c2O)CN1Cc1ccc(F)cc1
IC50 [1]: 335 nM | CC50 (MT4): 300 nM | EC50 [2]: 11 nM

O=C(NCc1ccc(F)cc1)c1nc(N2CCCCS2(=O)=O)c2cccnc2c1O
EC50 [3]: 3.8 nM | IC50 [1]: 50 nM | EC50 [4]: 88 nM | CC50 (MT4): 1500 nM | solubility [5]: 7.2 µM (≈ 3.1 µg/mL)
